These results are taken from PubChem BioAssay (NCI).

Each structure is given as a SMILES string.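 In this assay, cells in 96-well plates receive the compound at five concentrations for 48 hours. Endpoints are linearly interpolated between the surrounding concentrations. TGI marks complete inhibition of growth.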 A value given as a limit tells only on which side of the number the result lay.

Among the test systems are 786-0 renal; ACHN renal; CCRF-CEM leukemia; DU-145 prostate; MDA-MB-231 breast; NCI-H522 lung; RPMI-8226 leukemia; SF-539 CNS; T-47D breast; DMS 114 small cell lung; DMS 273 small cell lung; HOP-18 NSCLC.
What all share (experiment): NCI-60 cell line screen, 48 h

For the compound `O=c1cc(-c2ccc(O)cc2)n(C2CC2)c2ccccc12`, the TGI with 786-0 renal stood at 17.1 µM; in the test with ACHN renal it was 5.99 µM; in the test with CCRF-CEM leukemia it was 72.2 µM; in the test with DU-145 prostate it was 21.5 µM; with MDA-MB-231 breast, 22.2 µM; in the test with NCI-H522 lung, 9.69 µM. Further, the TGI in the test with RPMI-8226 leukemia is 9.05 µM; in the test with SF-539 CNS it was 18.9 µM; with T-47D breast, 20.7 µM.

As for `CSc1nc(NC2OCC(OC(C)=O)C(OC(C)=O)C2OC(C)=O)c(N=C(C)C(C)=O)c(=O)[nH]1` (stereo unspecified), the TGI with ACHN renal, with CCRF-CEM leukemia, in the test with DMS 114 small cell lung, with DMS 273 small cell lung, with HOP-18 NSCLC and in the test with RPMI-8226 leukemia was > 100 µM in each case. Also, the TGI with SF-539 CNS is > 100 µM.

Turning to `O=C(C=P(c1ccccc1)(c1ccccc1)c1ccccc1)c1cccc(-c2cccc([N+](=O)[O-])c2)c1`, the TGI in the test on 786-0 renal is > 100 µM; in the test with ACHN renal, 15.7 µM; with CCRF-CEM leukemia, 7.63 µM; in the test with DU-145 prostate, > 100 µM; in the test with MDA-MB-231 breast, 7.04 µM; in the test with NCI-H522 lung, 4.4 µM. Also, the TGI in the test on RPMI-8226 leukemia was 4.53 µM; in the test with SF-539 CNS it was 54.4 µM; with T-47D breast, > 100 µM.

With `O=C1N(c2ccccc2)C2(c3ccccc3)CC3CCCC13S2` (stereo unspecified), the TGI with 786-0 renal is > 100 µM; in the test on ACHN renal, > 100 µM; in the test on CCRF-CEM leukemia, > 100 µM; with DU-145 prostate, > 100 µM; in the test with MDA-MB-231 breast, > 100 µM; in the test on NCI-H522 lung it was 75.7 µM. Besides, the TGI in the test with RPMI-8226 leukemia is 98.8 µM; with SF-539 CNS it was > 100 µM; with T-47D breast, > 100 µM.

As for `O=C(C[C@H](NC(=O)OCc1ccccc1)C(=O)NC1Cc2ccccc2OC1=O)OCc1ccccc1` (stereo partly specified), the TGI in the test on CCRF-CEM leukemia is > 100 µM; in the test with DU-145 prostate it was > 100 µM; with MDA-MB-231 breast it was 71.6 µM; in the test with NCI-H522 lung, > 100 µM; with RPMI-8226 leukemia, > 100 µM; in the test with T-47D breast, > 100 µM.

As to `N#Cc1c(NC(=S)Nc2ccc(Cl)cc2)sc2c1CCCC2`, the TGI is > 100 µM in the test on ACHN renal; > 100 µM in the test on DU-145 prostate; > 100 µM in the test with MDA-MB-231 breast; > 100 µM in the test on NCI-H522 lung; 67.9 µM in the test on RPMI-8226 leukemia; > 100 µM in the test on T-47D breast.

As to `OC1(c2ccc(Cl)cc2)c2c(ccc3c2OCO3)C2=NCCN21` (stereo unspecified), the TGI was > 100 µM in the test on 786-0 renal; > 100 µM in the test on ACHN renal; > 100 µM in the test on CCRF-CEM leukemia; > 100 µM in the test on DU-145 prostate; 91.8 µM in the test on MDA-MB-231 breast; 42.5 µM in the test with RPMI-8226 leukemia. The TGI in the test with SF-539 CNS and with T-47D breast was > 100 µM in each case.

On to `O=C(O)c1cc(=O)[nH]c(SCc2ccccc2)n1`, for which the TGI with 786-0 renal, in the test on ACHN renal, in the test with DU-145 prostate, in the test on MDA-MB-231 breast, in the test with NCI-H522 lung and in the test with T-47D breast was > 100 µM in each case.

In the case of `CC(C)CCC[C@@H](C)[C@H]1CC[C@H]2[C@@H]3CC[C@H]4C[C@H](N)CC[C@]4(C)[C@H]3CC[C@]12C`, the TGI was > 100 µM in the test with 786-0 renal; 36.2 µM in the test with ACHN renal; 8.5 µM in the test with CCRF-CEM leukemia; 33.9 µM with DU-145 prostate; 8.22 µM with MDA-MB-231 breast; 99.7 µM with NCI-H522 lung. Further, the TGI in the test on RPMI-8226 leukemia and with T-47D breast was > 100 µM in each case.

For the compound `CCN(CC)CCCC(C)Nc1ccnc2cc3ccccc3cc12` (stereo unspecified), the TGI in the test on 786-0 renal was > 100 µM; in the test with ACHN renal it was 21 µM; in the test on CCRF-CEM leukemia, > 100 µM; in the test with DU-145 prostate it was > 100 µM; in the test with MDA-MB-231 breast, > 100 µM; in the test on NCI-H522 lung it was 29 µM. For the same compound, the TGI was > 100 µM with RPMI-8226 leukemia, > 100 µM in the test on SF-539 CNS and 89.7 µM in the test with T-47D breast.

Consider `Cc1nc2c(n1C)C(=O)c1nc(CBr)[nH]c(=O)c1C2=O`, for which the TGI in the test on ACHN renal, in the test with CCRF-CEM leukemia, in the test on DMS 114 small cell lung, with DMS 273 small cell lung, with HOP-18 NSCLC and in the test with NCI-H522 lung was > 100 µM throughout. The TGI in the test on RPMI-8226 leukemia and in the test on SF-539 CNS was > 100 µM in each case.

With `N/C(=N\S(=O)(=O)c1cccc2nsnc12)Nc1ccc(Cl)cc1`, the TGI with 786-0 renal is > 100 µM; with ACHN renal, > 100 µM; with DU-145 prostate, > 100 µM; in the test with MDA-MB-231 breast it was 75.9 µM; in the test with NCI-H522 lung it was 25.7 µM; in the test with RPMI-8226 leukemia, > 100 µM. Moreover, the TGI in the test on SF-539 CNS and in the test on T-47D breast was > 100 µM each time.

Turning to `CC(C)(C)OC(=O)NCC(=O)NC1c2ccsc2/C(=N/O)[C@H]1O` (stereo partly specified), the TGI with CCRF-CEM leukemia, in the test with DU-145 prostate, with MDA-MB-231 breast, with SF-539 CNS and in the test with T-47D breast was > 100 µM in each case.

Take `CCCCCCCCCCCCCCCc1ccc(OCC(O)CO)cc1` (stereo unspecified): the TGI in the test with ACHN renal was > 100 µM; in the test with CCRF-CEM leukemia, > 100 µM; in the test on DMS 114 small cell lung it was 68.3 µM; in the test on DMS 273 small cell lung it was 33.3 µM; with HOP-18 NSCLC, > 100 µM; in the test with NCI-H522 lung, 35.4 µM. The TGI is 53.2 µM in the test on RPMI-8226 leukemia and > 100 µM with SF-539 CNS.
